Tests used:
Format in all cases: in vivo
Plutella xylostella = assay: Example B5: activity against Plutella xylostella (diamond back moth), artificial diet, eggs; details: 192 h, 8 days after infestation, read-out: effect in at least one of the two categories (mortality or growth inhibition)
Experimental: 24-well microtiter plates with artificial diet were treated with aqueous test solutions prepared from 10′000 ppm DMSO stock solutions by pipetting. After drying, Plutella eggs were pipetted through a plastic stencil onto a gel blotting paper and the plate was closed with it. The samples were assessed for mortality and growth inhibition in comparison to untreated samples 8 days after infestation. The following compounds gave an effect of at least 80% in at least one of the two categories (mortality or growth inhibition) at an application rate of 200 ppm: P1, P2, P3, P4, P5, P6, P7, P8, P9, P10, P11, P12, P13, P14, P15, P16, P17, P18, P19, P20, P21, P22, P23, P24, P25, P26, P27, P28, P29, P30, P31, P32, P33, P34, P35, P36, P37, P38, P39, P40, P41, P42, P43, P44, P45, P46, P47, P48, P49, P50, P51, P52, P53, P54, P55, P57, P58, P59, P60, P61, P62, P63, P64, P65, P66, P67, P69, P70, P71, P72, P73, P74, P75, P77, P78, P81, P82, P83.

Spodoptera littoralis = assay: Example B6: activity against Spodoptera littoralis (Egyptian cotton leaf worm), cotton leaf discs; details: foliar; for percent control (mortality, anti-feedant effect or growth inhibition) at 200 ppm: 72 h, L1 larvae, 3 days after infestation, read-out: control (at least one of mortality, anti-feedant effect, growth inhibition)
Experimental: Cotton leaf discs were placed onto agar in 24-well microtiter plates and sprayed with aqueous test solutions prepared from 10′000 ppm DMSO stock solutions. After drying the leaf discs were infested with five L1 larvae. The samples were assessed for mortality, anti-feeding effect, and growth inhibition in comparison to untreated samples 3 days after infestation. Control of Spodoptera littoralis by a test sample is given when at least one of the categories mortality, anti-feedant effect, and growth inhibition is higher than the untreated sample.

Chilo suppressalis = assay: Example B1: activity against Chilo suppressalis (striped rice stemborer), artificial diet; details: for percent control (mortality, anti-feedant effect or growth inhibition) at 200 ppm: 144 h, L2 larvae, 6 days after infestation, read-out: control (at least one of mortality, anti-feedant effect, growth inhibition)
Experimental: 24-well microtiter plates with artificial diet were treated with aqueous test solutions prepared from 10′000 ppm DMSO stock solutions by pipetting. After drying, the plates were infested with L2 larvae (6-8 per well). The samples were assessed for mortality, anti-feeding effect, and growth inhibition in comparison to untreated samples 6 days after infestation. Control of Chilo suppressalis by a test sample is given when at least one of the categories mortality, anti-feedant effect, and growth inhibition is higher than the untreated sample.

Diabrotica balteata = assay: Example B2: activity against Diabrotica balteata (corn root worm), maize sprouts; details: 96 h, L2 larvae, 4 days after infestation, read-out: effect in at least one of the two categories (mortality or growth inhibition)
Experimental: Maize sprouts placed onto an agar layer in 24-well microtiter plates were treated with aqueous test solutions prepared from 10′000 ppm DMSO stock solutions by spraying. After drying, the plates were infested with L2 larvae (6 to 10 per well). The samples were assessed for mortality and growth inhibition in comparison to untreated samples 4 days after infestation. The following compounds gave an effect of at least 80% in at least one of the two categories (mortality or growth inhibition) at an application rate of 200 ppm: P1, P2, P3, P4, P5, P7, P8, P9, P10, P11, P12, P13, P14, P15, P16, P17, P18, P19, P20, P21, P22, P23, P24, P25, P26, P27, P28, P29, P30, P31, P33, P34, P35, P36, P37, P38, P39, P40, P41, P42, P43, P45, P46, P47, P48, P49, P50, P51, P52, P53, P55, P57, P58, P59, P60, P61, P62, P63, P64, P65, P66, P67, P69, P71, P75, P81, P82, P83.

SMILES | percent effect (mortality or growth inhibition) at 200 ppm (Plutella xylostella) [%] | percent control (mortality, anti-feedant effect or growth inhibition) at 200 ppm (Spodoptera littoralis) [%] | percent control (mortality, anti-feedant effect or growth inhibition) at 200 ppm (Chilo suppressalis) [%] | percent effect (mortality or growth inhibition) at 200 ppm (Diabrotica balteata) [%] | mortality at 3.12 ppm (Spodoptera littoralis) [%] | mortality at 50 ppm (Chilo suppressalis) [%] | mortality at 12.5 ppm (Chilo suppressalis; 12.5 ppm) [%] | mortality at 50 ppm (Spodoptera littoralis; 50 ppm) [%]
CCN(C)C(=O)c1cnc(-n2ncnc2[C@H](C)Nc2ncnc3c(C(F)(F)F)cc(Cl)cc23)s1 [Compound P6, 2-[5-[(1S)-1-[[6-chloro-8-(trifluoromethyl)quinazolin-4-yl]amino]ethyl]-1,2,4-triazol-1-yl]-N-ethyl-N-methyl-thiazole-5-carboxamide] | ≥ 80 | ≥ 80 | ≥ 80 | – | – | – | – | –
C[C@H](Nc1ncnc2c(C(F)(F)F)cc(Cl)cc12)c1ncnn1-c1ccc(C(N)=O)nn1 [Compound P20, 6-[5-[(1S)-1-[[6-chloro-8-(trifluoromethyl)quinazolin-4-yl]amino]ethyl]-1,2,4-triazol-1-yl]pyridazine-3-carboxamide] | ≥ 80 | – | ≥ 80 | ≥ 80 | – | – | – | –
C[C@H](Nc1ncnc2c(C(F)(F)F)cc(Cl)cc12)c1ncnn1-c1cc(C(=O)NC2(C#N)CC2)ncn1 [Compound P22, 6-[5-[(1S)-1-[[6-chloro-8-(trifluoromethyl)quinazolin-4-yl]amino]ethyl]-1,2,4-triazol-1-yl]-N-(1-cyanocyclopropyl)pyrimidine-4-carboxamide] | ≥ 80 | ≥ 80 | ≥ 80 | ≥ 80 | – | – | – | –
CON(C)C(=O)c1cc(-n2ncnc2[C@H](C)Nc2ncnc3c(C(F)(F)F)cc(Cl)cc23)ncn1 [Compound P27, 6-[5-[(1S)-1-[[6-chloro-8-(trifluoromethyl)quinazolin-4-yl]amino]ethyl]-1,2,4-triazol-1-yl]-N-methoxy-N-methyl-pyrimidine-4-carboxamide] | ≥ 80 | ≥ 80 | – | ≥ 80 | – | – | – | –
CONC(=O)c1cc(-n2ncnc2[C@H](C)Nc2ncnc3c(C(F)(F)F)cc(Cl)cc23)ncn1 [Compound P28, 6-[5-[(1S)-1-[[6-chloro-8-(trifluoromethyl)quinazolin-4-yl]amino]ethyl]-1,2,4-triazol-1-yl]-N-methoxy-pyrimidine-4-carboxamide] | ≥ 80 | ≥ 80 | ≥ 80 | ≥ 80 | – | – | – | –
C[C@H](Nc1ncnc2c(C(F)(F)F)cc(Cl)cc12)c1ncnn1-c1cc(C(=O)N2CCOCC2)ncn1 [Compound P32, [6-[5-[(1S)-1-[[6-chloro-8-(trifluoromethyl)quinazolin-4-yl]amino]ethyl]-1,2,4-triazol-1-yl]pyrimidin-4-yl]-morpholino-methanone] | ≥ 80 | ≥ 80 | ≥ 80 | – | – | – | – | –
C[C@H](Nc1ncnc2c(C(F)(F)F)cc(Cl)cc12)c1ncnn1-c1cc(C(=O)NC(C)(C#N)C2CC2)ncn1 (stereo partly drawn) [Compound P42, 6-[5-[(1S)-1-[[6-chloro-8-(trifluoromethyl)quinazolin-4-yl]amino]ethyl]-1,2,4-triazol-1-yl]-N-(1-cyano-1-cyclopropyl-ethyl)pyrimidine-4-carboxamide] | ≥ 80 | ≥ 80 | ≥ 80 | ≥ 80 | – | – | – | –
C[C@H](Nc1ncnc2c(C(F)(F)F)cc(Cl)cc12)c1ncnn1-c1cc(C(=O)NC2(C)CS(=O)(=O)C2)ncn1 [Compound P44, 6-[5-[(1S)-1-[[6-chloro-8-(trifluoromethyl)quinazolin-4-yl]amino]ethyl]-1,2,4-triazol-1-yl]-N-(3-methyl-1,1-dioxo-thietan-3-yl)pyrimidine-4-carboxamide] | ≥ 80 | – | – | – | – | – | – | –
C[C@H](Nc1ncnc2c(C(F)(F)F)cc(Cl)cc12)c1ncnn1-c1cc(C(=O)NC2(C)CSC2)ncn1 [Compound P45, 6-[5-[(1S)-1-[[6-chloro-8-(trifluoromethyl)quinazolin-4-yl]amino]ethyl]-1,2,4-triazol-1-yl]-N-(3-methylthietan-3-yl)pyrimidine-4-carboxamide] | ≥ 80 | ≥ 80 | – | ≥ 80 | – | – | – | –
CC(Nc1ncnc2c(C(F)(F)F)cc(Cl)cc12)c1nccnc1-c1cc(C(N)=O)ncn1 (stereo not drawn) [Compound P57, 6-[3-[1-[[6-chloro-8-(trifluoromethyl)quinazolin-4-yl]amino]ethyl]pyrazin-2-yl]pyrimidine-4-carboxamide] | ≥ 80 | ≥ 80 | ≥ 80 | ≥ 80 | 80 | 100 | – | –
CC(Nc1ncnc2c(I)cc(Cl)cc12)c1nccnc1-c1cc(C(N)=O)ncn1 (stereo not drawn) [Compound P58, 6-[3-[1-[(6-chloro-8-iodo-quinazolin-4-yl)amino]ethyl]pyrazin-2-yl]pyrimidine-4-carboxamide] | ≥ 80 | ≥ 80 | ≥ 80 | ≥ 80 | – | – | – | –
C[C@H](Nc1ncnc2c(Cl)cc(I)cc12)c1ncnn1-c1cnc(C(=O)NCC#N)cn1 [Compound P70, 5-[5-[(1S)-1-[(8-chloro-6-iodo-quinazolin-4-yl)amino]ethyl]-1,2,4-triazol-1-yl]-N-(cyanomethyl)pyrazine-2-carboxamide] | ≥ 80 | ≥ 80 | ≥ 80 | – | – | – | – | –
C[C@H](Nc1ncnc2c(Cl)cc(I)cc12)c1ncnn1-c1cnc(C(N)=O)cn1 [Compound P77, 5-[5-[(1S)-1-[(8-chloro-6-iodo-quinazolin-4-yl)amino]ethyl]-1,2,4-triazol-1-yl]pyrazine-2-carboxamide] | ≥ 80 | – | ≥ 80 | – | – | – | – | –
C[C@H](Nc1ncnc2c(C(F)(F)F)cc(Cl)cc12)c1ncnn1-c1cc(C(=O)N(C)CC2CC2)ncn1 [Compound P78, 6-[5-[(1S)-1-[[6-chloro-8-(trifluoromethyl)quinazolin-4-yl]amino]ethyl]-1,2,4-triazol-1-yl]-N-(cyclopropylmethyl)-N-methyl-pyrimidine-4-carboxamide] | ≥ 80 | – | – | – | – | – | – | –
CC(Nc1ncnc2c(C(F)(F)F)cc(Cl)cc12)c1nccnc1-c1ncccn1 (stereo not drawn) [WO 21/083936 P.130, reference compound] | – | – | – | – | 0 | 0 | – | –
C[C@H](Nc1ncnc2c(C(F)(F)F)cc(Cl)cc12)c1ncnn1-c1ncc(C#N)s1 [WO 22/268648 P10, reference compound] | – | – | – | – | – | – | 0 | –
C[C@H](Nc1ncnc2c(Cl)cc(I)cc12)c1ncnn1-c1ncc(C#N)s1 [WO 22/268648 P20, reference compound] | – | – | – | – | – | – | – | 0
